US20260250318A1, “COMPOSITIONS AND METHODS FOR CROSSING THE BLOOD BRAIN BARRIER” (VOYAGER THERAPEUTICS, INC., priority 2022, published 2026)

Experiments:
Details in all cases: synthetic library passage 3, intravenous, relative to wild-type AAV9
[1] = system: brain; test: NGS fold enrichment of synthetic library (passage 3) in BALB/c mice, first cross-species screen; format: in vivo
How it was run: (§1)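 Fold enrichment versus wild-type AAV9 was derived by NGS of RT-PCR-amplified RNA from nervous tissue, collected e.g. 28 days after IV dosing […]. The library (passage 3) was given to two NHPs aged 2-4 years and to 6-8-week BALB/c and C57Bl/6 mice (n=3 each).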

[2] = system: brain, spinal cord, and DRG of the NHPs; test: NGS fold enrichment of synthetic library (passage 3) in NHPs, first cross-species screen; format: in vivo, cynomolgus macaques (Macaca fascicularis)
How it was run: as §1

[3] = system: brain; test: NGS fold enrichment of synthetic library (passage 3) in C57Bl/6 mice, first cross-species screen; format: in vivo
How it was run: as §1

[4] = RNA from brain of BALB/c mice, NGS
[5] = RNA from spinal cord of NHPs, NGS
[6] = RNA from brain of C57Bl/6 mice, NGS

Row | Sequence | Fold enrichment over AAV9 in the brain of Mice (BALB/c) ([1]; RNA NGS, brain of BALB/c mice) | Fold enrichment over AAV9 in the brain of NHPs ([2]; RNA NGS, brain of NHPs) | Fold enrichment over AAV9 in the spinal cord of NHPs ([2]; RNA NGS, spinal cord of NHPs) | Fold enrichment over AAV9 in the brain of Mice (C57Bl/6) ([3]; RNA NGS, brain of C57Bl/6 mice) | Fold enrichment over AAV9 in the brain of Mice (BALB/c) [1, 4] | Fold enrichment over AAV9 in the brain of NHPs ([2]; RNA from brain of NHPs, NGS) | Fold enrichment over AAV9 in the spinal cord of NHPs [2, 5] | Fold enrichment over AAV9 in the brain of Mice (C57Bl/6) [3, 6]
1 | GLLAGKSSGQNQQT | 0.946 fold | 1.491 fold | 2.981 fold | 0.999 fold |  |  |  | 
2 | GSGQNQHSVHNDQT | 0.515 fold | 1.428 fold | 0.000 fold | 0.521 fold |  |  |  | 
3 | GSNGFTALGQNQQT | 0.332 fold | 3.361 fold | 2.663 fold | 0.830 fold |  |  |  | 
4 | GVVAAHNSGQNQQT | 1.336 fold | 2.202 fold | 1.301 fold | 1.196 fold |  |  |  | 
5 | GSVGSRPVGQNQQT | 0.716 fold | 1.442 fold | 11.363 fold | 1.182 fold |  |  |  | 
6 | GSFSMGYGGQNQQT |  |  |  |  | 1.030 fold | 1.393 fold | 18.476 fold | 1.908 fold
7 | GSGVSTQLLQNQQT |  |  |  |  | 0.509 fold | 1.367 fold | 2.467 fold | 0.928 fold
8 | GSGQVVAHVGNQQT | 0.321 fold | 1.901 fold | 0.833 fold | 0.800 fold |  |  |  | 
9 | GSGQNQHSLPAHRT |  |  |  |  | 0.742 fold | 1.361 fold | 0.700 fold | 0.911 fold
10 | GSGQMVHTIGNQQT | 0.430 fold | 1.026 fold | 1.328 fold | 0.406 fold |  |  |  | 
11 | GSGQNQQSGTFLST | 0.742 fold | 1.090 fold | 5.673 fold | 1.021 fold |  |  |  | 
12 | GVGVITSSGQNQQT |  |  |  |  | 0.777 fold | 1.348 fold | 0.918 fold | 1.296 fold
13 | GGRNGHTVGQNQQT | 1.003 fold | 2.965 fold | 3.732 fold | 1.105 fold |  |  |  | 
14 | GSGQNQQTSTTPLP | 0.741 fold | 1.052 fold | 2.823 fold | 0.828 fold |  |  |  | 
15 | GSGYNQPHLQNQQT | 0.395 fold | 1.435 fold | 4.512 fold | 0.711 fold |  |  |  | 
16 | GSRQSKRNELNQQT | 0.232 fold | 2.177 fold | 0.000 fold | 1.325 fold |  |  |  | 
17 | GSGQQLSITPNQQT | 0.201 fold | 1.979 fold | 10.280 fold | 0.845 fold |  |  |  | 
18 | GSGQSYQRDHNQQT | 0.323 fold | 1.859 fold | 8.013 fold | 0.779 fold |  |  |  | 
19 | GSGQNTGHLTMQQT | 0.595 fold | 1.114 fold | 0.078 fold | 1.026 fold |  |  |  | 
20 | GSGQNHRSADMQQT | 0.212 fold | 1.084 fold | 12.001 fold | 0.417 fold |  |  |  | 

Row | Sequence | Fold enrichment over AAV9 in the brain of Mice (BALB/c) ([1]; RNA NGS, brain of BALB/c mice) | Fold enrichment over AAV9 in the brain of NHPs ([2]; RNA NGS, brain of NHPs) | Fold enrichment over AAV9 in the spinal cord of NHPs ([2]; RNA NGS, spinal cord of NHPs) | Fold enrichment over AAV9 in the brain of Mice (C57Bl/6) ([3]; RNA NGS, brain of C57Bl/6 mice) | Fold enrichment over AAV9 in the brain of Mice (BALB/c) [1, 4] | Fold enrichment over AAV9 in the brain of NHPs ([2]; RNA from brain of NHPs, NGS) | Fold enrichment over AAV9 in the spinal cord of NHPs [2, 5] | Fold enrichment over AAV9 in the brain of Mice (C57Bl/6) [3, 6]
21 | GSGMSPSTLQNQQT | 0.153 fold | 2.216 fold | 3.053 fold | 0.318 fold |  |  |  | 
22 | GSGQNQQTRQEGST |  |  |  |  | 0.718 fold | 1.339 fold | 0.000 fold | 0.645 fold
23 | GSGQNQQTGNPKHT | 1.139 fold | 1.504 fold | 5.973 fold | 1.391 fold |  |  |  | 
24 | GSGQNQYLRLELQT | 0.839 fold | 1.101 fold | 0.000 fold | 0.416 fold |  |  |  | 
25 | GALVSPISGQNQQT | 0.347 fold | 1.912 fold | 1.051 fold | 0.640 fold |  |  |  | 
26 | GSGQSHMATLNQQT | 0.504 fold | 2.657 fold | 0.724 fold | 1.173 fold |  |  |  | 
27 | GSRDGHTVGQNQQT | 0.661 fold | 1.928 fold | 7.089 fold | 0.495 fold |  |  |  | 
28 | GSGIPQRSGKNQQT | 1.685 fold | 3.331 fold | 0.000 fold | 1.418 fold |  |  |  | 
29 | GAMTVTISGQNQQT | 0.257 fold | 1.542 fold | 6.249 fold | 0.443 fold |  |  |  | 
30 | GSSHTLALGQNQQT | 0.406 fold | 1.441 fold | 7.071 fold | 0.851 fold |  |  |  | 
31 | GAMVSHSSGQNQQT | 0.868 fold | 1.833 fold | 8.999 fold | 0.739 fold |  |  |  | 
32 | GSGEYSRSGQNQQT | 0.205 fold | 2.145 fold | 0.745 fold | 0.617 fold |  |  |  | 
33 | GSGQNQQTLTASKE |  |  |  |  | 1.172 fold | 1.333 fold | 1.152 fold | 0.981 fold
34 | GSGQVYISTPNQQT |  |  |  |  | 0.282 fold | 1.367 fold | 0.000 fold | 0.859 fold
35 | GSGQNQQTMIANIR | 0.458 fold | 1.076 fold | 0.000 fold | 0.379 fold |  |  |  | 
36 | GSGIPAPRLQNQQT |  |  |  |  | 0.396 fold | 1.273 fold | 4.162 fold | 0.583 fold
37 | GSGSPHPSRQNQQT | 0.975 fold | 3.017 fold | 1.993 fold | 1.869 fold |  |  |  | 
38 | GSGQMGRQAVNQQT | 0.411 fold | 1.554 fold | 1.529 fold | 0.535 fold |  |  |  | 
39 | GSGQNQKGMQPNQT |  |  |  |  | 1.059 fold | 1.326 fold | 3.139 fold | 0.775 fold
40 | GAYGMVSSGQNQQT | 0.773 fold | 1.518 fold | 3.469 fold | 0.732 fold |  |  |  | 
